In PMC5811539, “Expression, Purification and Characterization of the Human Cannabinoid 1 Receptor” (Scientific Reports, 2018):

Columns and labels:
hΔCB1 = system: hΔCB1; parameters: method as in unpublished results; details: HEK293 cells; ref unpublished results; cited from earlier work
hΔCB1 receptor = system: T1, hΔCB1 receptor; experiment: Saturation binding assays (filtration and size-exclusion) with cell-free expressed hΔCB1; parameters: species or system human; details: cell-free expressed from pET15hΔCB1his6 and pET26shΔCB1his6, with nanodiscs, no T4 lysozyme
T1 construct: hCB1 receptor with an N-terminal 102 amino acid truncated residues (hΔCB1); host or cells: cell-free expression with nanodiscs
Experimental: The radioactive binding assays were performed with [^3H] CP-55,940 radioligand.

CCCCCCC(C)(C)c1ccc([C@@H]2C[C@H](O)CC[C@H]2CCCO)c(O)c1 [CP-55,940]
effect of N-terminal 102 amino acid truncation on binding (hΔCB1): truncation does not affect the binding

CCCCCCC(C)(C)c1ccc([C@@H]2C[C@H](O)CC[C@H]2CCCO)c(O)c1 [[^3H] CP-55,940]
specific binding (hΔCB1 receptor): did not show any specific binding
